Experiments:
[1] = system: human cancer cell lines (A549, MDA-MB-468, PC-3, Bx-PC3); assay: MTT anti-cancer assay, the other cancer cell lines of the panel; type: cell-based; conditions: at 10 μM, 6 days, cell lines other than MDA-MB-468 (A549, PC-3, Bx-PC3)
From the text: (§1) The anti-cancer activity of the compounds of the invention herein have been tested in in vitro assays using a microculture assay with 3-(4,5-dimethylthiazol-2-yl)-2,5-diphenyltetrazolium bromide (“MTT”) a test well known to those skilled in the art. This assay has an advantage over in vivo assay in that results are obtained within a week as opposed to several months. The assay can be carried out in 96-well microtiter plates. The MTT assay is based on the production of a dark blue formazan product by dehydrogenase in the mitochondria of live tumor cells after exposure to drug for 6 days [M. C. […] Thus, only live cells are stained and can be measured at 595 nm. […]
(§2) Treatment: Before commencing drug treatment, cells were replenished with media containing 0.5% FCS. […] As an end point, the amount of surviving cells (Live cells) was measured using a standard […] assay (MTT based), and calculated as percentage of cells treated with vehicle (DMSO) alone (% control).
(§3) MTT assay: The assay is based on the cleavage of the yellow tetrazolium salt MTT to purple formazan crystals by dehydrogenase activity in active mitochondria. […] The formazan crystals formed are solubilized and the resulting colored solution is quantified using a scanning multiwell spectrophotometer. […]

[2] = system: MDA-MB-468 breast cancer cells; assay: MTT anti-cancer assay, MDA-MB-468 breast cancer cells; type: cell-based, human; conditions: at 10 μM, 6 days
From the text: as §1, §2, §3

With CN(C)c1cc2c(cc1-c1ccc3cc(/C=C4\SC(=S)N(CC(=O)O)C4=O)ccc3c1)C(C)(C)CCC2(C)C [Compound 7, {5-[6-(3-Dimethylamino-5,5,8,8-tetramethyl-5,6,7,8-tetrahydro-naphthalen-2-yl)-naphthalen-2-ylmethylene]-4-oxo-2-thioxo-thiazolidin-3-yl}-acetic acid] the cells killed [1] was ≤ 50% and the cells killed [2] was ~80%.
